In patent US20010053773A1, “Method for inhibiting the growth of cancers” (The Procter & Gamble Company, priority 1998, published 2001):

Test system: breast cancer
Assay: mouse model for breast cancer, tumor mass and regrowth
Format: in vivo
Conditions: for tumor size and regrowth: followed to 180 days; for tumor regrowth / change in tumor mass on estrogen stimulation: stimulated with estrogen at day 115
Protocol: Carbendazim is administered to the mice at 4000, 5000, and 6000 mg/kg of body weight in a separate leg.

COC(=O)Nc1nc2ccccc2[nH]1 [Carbendazim, 2-methoxycarbonylamino-benzimidazole]
tumor size and regrowth (carbendazim at 4000, 5000 and 6000 mg/kg given after 130 days to mice that had been treated with cytoxan): The tumor continued to decrease in size and its regrowth was limited even after 180 days
dose dependence of tumor growth (carbendazim at 4000, 5000 and 6000 mg/kg of body weight): dose dependent
tumor size and regrowth (carbendazim at 4000, 5000 and 6000 mg/kg of body weight in a separate leg): The tumor continued to decrease in size and its regrowth was limited even after 180 days
tumor regrowth / change in tumor mass on estrogen stimulation: no significant change in tumor mass

O=P1(N(CCCl)CCCl)NCCCO1 (stereo not drawn) [cytoxan]
tumor regrowth (cytoxan treated control, no carbendazim): tumor regrowth after 100 days
tumor regrowth / change in tumor mass on estrogen stimulation: rapid regrowth
